Data published in ChEMBL document CHEMBL1144029, “Characterization of type II ligands in CYP2C9 and CYP3A4” (J Med Chem, 2008).

What was measured:
[1] = target: T1, Cytochrome P450 3A4 (Homo sapiens, UniProt P08684); test: Inhibition of human recombinant CYP3A4 expressed in Saccharomyces cerevisiae by fluorescence assay; format: ADME
[2] = target: T2, Cytochrome P450 2C9 (Homo sapiens, UniProt P11712); test: Inhibition of human recombinant CYP2C9 expressed in Saccharomyces cerevisiae by fluorescence assay; format: ADME
[3] = species: Homo sapiens; test: Selectivity for human recombinant CYP2C9 over human recombinant CYP3A4
[4] = target: T1, Cytochrome P450 3A4; test: Binding affinity to purified human recombinant CYP3A4 expressed in Escherichia coli assessed as spectral dissociation constant; format: ADME
[5] = target: T2, Cytochrome P450 2C9; test: Binding affinity to purified human recombinant CYP2C9 expressed in Escherichia coli assessed as spectral dissociation constant; format: ADME

T2 sequence (P11712 whole entry): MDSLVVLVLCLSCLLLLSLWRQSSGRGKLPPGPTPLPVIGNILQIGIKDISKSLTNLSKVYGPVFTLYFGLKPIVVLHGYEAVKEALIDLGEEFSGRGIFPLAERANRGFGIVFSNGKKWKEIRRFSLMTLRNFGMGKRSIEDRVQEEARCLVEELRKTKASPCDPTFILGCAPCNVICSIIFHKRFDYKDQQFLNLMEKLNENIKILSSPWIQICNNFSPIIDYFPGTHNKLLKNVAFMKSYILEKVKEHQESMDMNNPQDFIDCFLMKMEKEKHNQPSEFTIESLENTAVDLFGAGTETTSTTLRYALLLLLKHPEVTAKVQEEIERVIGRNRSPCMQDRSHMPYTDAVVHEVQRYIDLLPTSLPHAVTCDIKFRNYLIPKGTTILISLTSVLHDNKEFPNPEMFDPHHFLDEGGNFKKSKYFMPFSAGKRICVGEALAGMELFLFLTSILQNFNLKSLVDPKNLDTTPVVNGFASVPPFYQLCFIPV
T1 sequence (P08684 whole entry): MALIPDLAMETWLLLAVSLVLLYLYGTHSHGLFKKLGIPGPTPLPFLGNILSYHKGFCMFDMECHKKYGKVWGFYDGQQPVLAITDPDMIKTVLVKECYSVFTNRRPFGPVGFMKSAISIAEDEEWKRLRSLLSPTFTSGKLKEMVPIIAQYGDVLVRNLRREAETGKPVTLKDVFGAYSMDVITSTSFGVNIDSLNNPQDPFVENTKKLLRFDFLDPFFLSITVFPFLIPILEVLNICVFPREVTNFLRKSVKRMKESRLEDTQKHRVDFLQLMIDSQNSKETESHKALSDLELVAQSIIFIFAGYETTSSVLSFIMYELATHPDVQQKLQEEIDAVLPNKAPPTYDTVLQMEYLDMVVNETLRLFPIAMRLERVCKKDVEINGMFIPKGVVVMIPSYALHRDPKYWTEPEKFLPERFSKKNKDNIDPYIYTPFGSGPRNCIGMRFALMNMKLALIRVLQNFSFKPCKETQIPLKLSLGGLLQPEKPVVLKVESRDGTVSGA

Row | Compound | IC50 [1] | IC50 [2] | Selectivity ratio [3] | Kd [4] | Kd [5]
1 | O[C@](Cn1cccn1)(c1ccc(F)cc1F)n1cncn1 | 44 µM | > 50 µM |  |  | 
2 | COC(=O)[C@H](Cc1cnc[nH]1)NCc1ccccc1 | 1.5 µM | 20 µM |  |  | 
3 | Clc1ccc(C2(Cn3cncn3)CC(Br)CO2)c(Cl)c1 (centres undefined) [BROMUCONAZOLE] | 0.13 µM | 8.1 µM |  |  | 
4 | Cc1cnc(CNc2cc(-c3ccccc3)nc(-c3ccccn3)n2)nc1 | > 40 µM | > 50 µM |  |  | 
5 | CCC1COC(Cn2cncn2)(c2ccc(Cl)cc2Cl)O1 (centres undefined) [ETACONAZOLE] | 0.21 µM | > 50 µM |  | 0.21 µM | 
6 | CS(=O)(=O)Cc1cc(N2CCCC2)nc(-c2ccccc2)n1 | > 40 µM | > 50 µM |  |  | 
7 | CS(=O)(=O)OCC1COC(Cn2cncn2)(c2ccc(Cl)cc2Cl)O1 (centres undefined) | 7.7 µM | > 50 µM |  | 3.5 µM | 
8 | Clc1ccc(Cn2cc(-c3ccncc3)cn2)c(Cl)c1 | 0.23 µM | 0.5 µM |  | 0.38 µM | 3.6 µM
9 | O=C(Nc1ccccc1)OCc1cn(-c2ccc(Cl)cc2)nn1 | > 20 µM |  |  |  | 
10 | CCOc1ccc(NC(=O)c2ccc(-n3cnnn3)cc2)cc1 | 34 µM | > 30 µM |  |  | 

Now from value to compound, other results behind:

Row | IC50 [1] | IC50 [2] | Selectivity ratio [3] | Compound | Kd [4] | Kd [5]
11 | 12 µM | 11 µM |  | CCOC(=O)C(Cc1ccc(Cl)cc1Cl)c1ccno1 (centres undefined) |  | 
12 | 0.071 µM | 4.8 µM |  | Cc1cnc(CNc2cc(-c3ccccc3)nc(-c3ccncc3)n2)nc1 |  | 
13 | 28 µM | > 50 µM |  | CCn1c(SCc2ccc(OC)cc2)nnc1-c1ccncc1 |  | 
14 | 33 µM | 39 µM |  | COc1ccc(-c2cc(CNS(=O)(=O)c3ccccc3)on2)cc1 |  | 
15 | 1.3 µM | > 50 µM |  | CS(=O)(=O)Cc1cc(N2CCCC2)nc(-c2ccncc2)n1 |  | 
16 | 13 µM | > 50 µM |  | Cc1cc(C(C)(C)NC(=O)C(Br)C(C)(C)C)cc(C)n1 (centres undefined) |  | 
17 | 26 µM | 1.3 µM | 20 | CS(=O)(=O)c1ccc(Cn2cc(-c3ccncc3)cn2)cc1 |  | 
18 | 1.3 µM | 4.3 µM |  | Brc1ccc(-n2c(SCc3ccccc3)nnc2-c2ccncc2)cc1 |  | 
19 | 0.06 µM | 10 µM |  | Clc1ccc(OC(Cn2ccnc2)c2ccc(Cl)cc2Cl)c(Cl)c1 (centres undefined) |  | 
20 | 9.6 µM | 21 µM |  | Cc1cnc(CNc2cc(-c3ccccc3)nc(-c3cccnc3)n2)nc1 |  | 
